From patent US20160166604A1, “Thiol-Sensitive Positive Inotropes” (priority 2005, published 2016)
Where “and” joins values, the source holds several entries; their conditions need not be identical. Identical values can stand only once. Entries after “also recorded” stand apart in the source; their conditions may differ.

Assays:
[1] = Kinetics of AS decomposition in Tyrode solution; format: physicochemical; settings: after ~1000 sec (16 min); Tyrode solution pH 7.4, room temperature; identical for 0.1-1 mM AS
Method: FIG. IA-FIG. 1D show the effects of HNO donor AS on sarcomere shortening in isolated mouse ventricular myocytes.
At physiological pH, AS decomposes to produce HNO and nitrite. Whether nitrite could play a role in the observed responses was therefore tested. […] Identical results were obtained for 0.1-1 mM AS. Thus, at time of functional analysis, 25-250 μM NO2^− is expected; however, such levels (and higher or lower doses) had no effect on sarcomere shortening (FIG. 1H).

[2] = End-diastolic pressure-volume relationship (EDPVR) in chronically instrumented dogs with pacing-induced cardiac failure; format: in vivo; settings: CHF dog preparations
Method: Adult male mongrel dogs (22-25 kg) were chronically instrumented for pressure-dimension analysis as described. See, Paolocci et al., “Positive Inotropic and Lusitropic Effects of HNO/NO− in Failing Hearts: Independence from Beta-Adrenergic Signaling,” Proc. Natl. Acad. Sci. USA., 100, 5537-5542 (2003); and Senzaki et al., Circulation, 101, 1040-1048 (2000). Animals were anesthetized with 1% to 2% halothane after induction with sodium thiopental (10-20 mg/kg, i.v.). The surgical/experimental animal protocol was approved by the Johns Hopkins University Animal Care and Use Committee. […] Cardiac failure was induced by rapid ventricular pacing for 3 weeks as described. See, Paolocci et al., supra, and Senzaki et al., supra.
Hemodynamic data were digitized at 250 Hz. […] These relations strongly correlate with results from pressure-volume data in normal and failing hearts, as previously validated. Cardiovascular function was assessed by stroke dimension, fractional shortening (stroke dimension/end-diastolic dimension [EDD]), estimated cardiac output (stroke dimension×HR), peak rate of pressure rise (dP/dtmax), end-systolic elastance (Ees, slope of end-systolic pressure-dimension relation [ESPDR]), the slope of dP/dtmax-EDD relation (DEDD) (see, Little, Circ Res., 56:808-815 (1985)), pre-recruitable stroke work (PRSW), (based on dimension-data), estimated arterial elastance (Ea, end systolic pressure/stroke dimension) and estimated total resistance (RT, […]). Ees, DEDD and PRSW provide load-insensitive contractility measures.
The end-diastolic pressure-volume relationship (EDPVR) was determined applying non-linear regression analysis to the end-diastolic pressure and volume points (Ped and Ved, respectively), according to Kass, Cardiol Clin., 18, 571-86 (2000) (Review).
In order to evaluate the impact of each pharmacological intervention on the EDPVR, changes in end-diastolic pressure from baseline (ΔPed) at volumes providing baseline end-diastolic pressure of […] mmHg EDP (V10, V15, V20, respectively) were determined (FIG. 5).

SERCA2a = biological target: T1, SERCA2a (Canis lupus familiaris, UniProt O46674); test: Ca-ATPase partial reactions and Vmax in cardiac SR vesicles from normal and failing dog hearts; format: biochemical; settings: for stimulation of maximal Ca-ATPase activity compared to control / spontaneous E2P hydrolysis rate: 0.25 mM AS; for stimulation of maximal Ca-ATPase activity compared to control: 2.5 mM oxalate
T1 construct: sealed cardiac sarcoplasmic reticulum (CSR) membrane vesicles isolated from normal (N) and failing (F); from tissue; host or cells: dog heart, normal and tachy-pacing-induced failing (sealed cardiac SR vesicles)
Method: The effect of AS on Ca-ATPase partial reactions and Vmax was measured in sealed cardiac sarcoplasmic reticulum (CSR) membrane vesicles isolated from normal (N) and failing (F) (tachy-pacing-induced) dog hearts. […] In the presence of 2.5 mM oxalate (Ca^2+-loading conditions), 0.25 mM AS stimulated maximal Ca-ATPase activity in N and F CSR (4% vs. 9% compared to control). […] This relieves back inhibition of SERCA2a by the Ca^2+ transport gradient, increasing Vmax.

[3] = test system: isolated mouse ventricular myocytes; test: Sarcomere shortening in field-stimulated isolated mouse ventricular myocytes; format: cell-based
Method: Wild type 2-4 month old mice were anesthetized with intraperitoneal pentobarbital sodium (100 mg/kg/ip). Hearts were perfused as previously described. Mongillo, M. et al., Circ. Res., 98, 226-234 (2006). To assess for sarcomere shortening, cells were imaged using field stimulation (Warner instruments) in an inverted fluorescence microscope (Diaphot 200; Nikon, Inc). Sarcomere length was measured by real-time Fourier transform (IonOptix MyoCam, CCCCD100M) and cell twitch amplitude is expressed as a percentage of resting cell length. Twitch kinetics was quantified by measuring the time to peak shortening and the time from peak shortening to 50% relaxation. For whole calcium transient measurements, myocytes were loaded with the Ca^2+ indicator fluo-4/AM (Molecular Probes, 20 μM for 30 min) and Ca^2+ transients were measured under field-stimulation at 0.5 Hz in perfusion solution by confocal laser scanning microscope (LSM510, Carl Zeiss). Digital image analysis used customer-designed programs coded in Interactive Data Language (IDL).
Nitroxyl (HNO) confers positive inotropy in vivo. Here, it was determined whether HNO action stems from a direct influence on sarcoplasmic reticulum (SR) Ca^2+ cycling, involving enhanced Ca^2+ release from ryanodine receptors (RyR2). Myocytes were isolated from ST mice, suspended in Tyrode's solution (1 mM Ca^2+) and field stimulated (0.5 Hz, 25° C.). Sarcomere shortening (SS) was assessed by real-time image analysis, Ca^2+ transients from Indo-1 fluorescence. RyR2 activity was determined by optical imaging of Ca^2+ release from single Ca^2+ release units.

T1 sequence (O46674 whole entry): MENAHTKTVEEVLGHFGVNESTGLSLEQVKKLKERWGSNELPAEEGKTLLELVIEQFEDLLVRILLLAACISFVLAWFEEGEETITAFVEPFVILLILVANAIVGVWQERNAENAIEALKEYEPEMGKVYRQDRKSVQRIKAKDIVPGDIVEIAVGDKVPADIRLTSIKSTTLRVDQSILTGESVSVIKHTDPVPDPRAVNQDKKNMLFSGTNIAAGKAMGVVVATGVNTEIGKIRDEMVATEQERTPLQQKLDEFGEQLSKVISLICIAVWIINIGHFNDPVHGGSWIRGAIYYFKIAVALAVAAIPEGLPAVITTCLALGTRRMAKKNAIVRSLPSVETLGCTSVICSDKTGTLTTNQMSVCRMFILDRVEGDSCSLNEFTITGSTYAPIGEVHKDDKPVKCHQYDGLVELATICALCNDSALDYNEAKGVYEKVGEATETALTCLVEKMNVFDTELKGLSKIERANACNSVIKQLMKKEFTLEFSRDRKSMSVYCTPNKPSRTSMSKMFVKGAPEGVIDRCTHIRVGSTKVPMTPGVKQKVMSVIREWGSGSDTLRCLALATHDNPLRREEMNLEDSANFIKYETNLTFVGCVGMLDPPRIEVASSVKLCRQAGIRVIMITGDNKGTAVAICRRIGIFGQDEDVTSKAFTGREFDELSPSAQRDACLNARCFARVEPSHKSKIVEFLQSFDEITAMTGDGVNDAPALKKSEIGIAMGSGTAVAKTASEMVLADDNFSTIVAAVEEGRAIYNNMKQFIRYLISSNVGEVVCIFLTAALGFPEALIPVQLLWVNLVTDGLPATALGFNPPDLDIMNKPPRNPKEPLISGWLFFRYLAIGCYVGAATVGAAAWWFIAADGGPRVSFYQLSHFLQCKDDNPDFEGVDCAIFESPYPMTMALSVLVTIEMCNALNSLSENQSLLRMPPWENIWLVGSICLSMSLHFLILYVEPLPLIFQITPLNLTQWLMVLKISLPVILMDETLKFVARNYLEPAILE

What does the source list for `[Na+].[Na+].[O-][N+]([O-])=NO` [AS, Angeli's salt]?
nitrite generation on AS decomposition [1]: 25%; effect on end-diastolic pressure-volume relationship (EDPVR) [2]: declined significantly; Vmax stimulation in presence of Ca2+ ionophore A23187 (SERCA2a; AS with A23187): abolished; stimulation of maximal Ca-ATPase activity compared to control (SERCA2a; F CSR): 9%; stimulation of maximal Ca-ATPase activity compared to control (SERCA2a; N CSR): 4%; Vmax stimulation (SERCA2a; N CSR, AS, without oxalate): 27%; spontaneous E2P hydrolysis rate (SERCA2a; failing (F) CSR, without AS 11): 111 s⁻¹; spontaneous E2P hydrolysis rate (SERCA2a; normal (N) CSR, without AS 12): 76 s⁻¹; myocyte relaxation hastened (time to 50% re-lengthening) ([3]; AS): 10-20%; time until response plateaued ([3]; AS): 10 to 15 min; increase in sarcomere shortening ([3]; AS 0.5 mM): 73±31% and ~100%; contractility response (sarcomere shortening) after GSH pre-treatment ([3]; AS 0.5 mM after GSH ethyl ester 4 mM for 3 hrs): 57±19%; increase in sarcomere shortening ([3]; AS 1 mM): 131±31% and 117±25% and ~100%; increase in sarcomere shortening with guanylate cyclase inhibition ([3]; AS 1 mM with ODQ, n=15, p=NS vs. AS 1 mM): 157±40%; AS concentration above which myocyte contractility rose ([3]; AS 10^-6 to 10^-3 M, C57/BL6 myocytes): > 100 µM; effect on sarcomere shortening ([3]; AS <0.1 mM): no effect; effect of co-application on ISO (2.5 nM)-stimulated sarcomere shortening ([3]; DEA/NO 0.25 mM, AS 0.5 mM): doubled; sarcomere shortening response after GSH pre-incubation ([3]; GSH 4 mM for 3 hrs, compared with 1 mM AS alone, n=14): 58±19%; AS inotropy on co-infusion of N-acetyl-L-cysteine ([3]; NAC 3 mM): abolished; effect of PKG inhibitor Rp-8Br-cGMPs on the agent's inotropy ([3]; Rp-8Br-cGMPs 10 μM pre-treatment): did not alter; also recorded: no impact; effect of PKA inhibitor Rp-CPT-cAMPs on the agent's enhancement of sarcomere shortening ([3]; Rp-CPT-cAMPs 100 μM pre-treatment): did not alter; reversibility of response after discontinuation ([3]; at ≦500 μM, after a similar time period): fully reversible; AS inotropy on co-treatment with thapsigargin ([3]; thapsigargin 3 μM, n=16): 52±14%
